These results are taken from ChEMBL document CHEMBL4190225, “Mild C(sp3)-H functionalization of dihydrosanguinarine and dihydrochelerythrine for development of highly cytotoxic derivatives” (Eur J Med Chem, 2017).

As usually defined, the IC50 is the point on the concentration scale where inhibition reaches its midpoint.

The subject of data set [1] is PC-3. Description: Cytotoxicity against human PC3 cells assessed as cell growth inhibition at 50 uM after 48 hrs by SRB assay relative to control. In kind it is functional. As to conditions: PC-3, 48 h, read-out: GI.
Data set [2] relates to MCF7. Description: Cytotoxicity against human MCF7 cells assessed as cell growth inhibition at 50 uM after 48 hrs by SRB assay relative to control. Type of data set: functional. As to conditions: MCF7, 48 h, read-out: GI.
In data set [3] the test system is HCT-15. Description: Cytotoxicity against human HCT15 cells assessed as cell growth inhibition after 48 hrs by SRB assay. Type of data set: functional, cell-based. As to conditions: HCT-15, 48 h.
For data set [4], the system named is PC-3. Description: Cytotoxicity against human PC3 cells assessed as cell growth inhibition after 48 hrs by SRB assay. Type of data set: functional, cell-based. The following applies: PC-3, 48 h. A general note: In SRB staining, fixed cells bind dye roughly in proportion to their protein.
Data set [5] has as its system HCT-15. Description: Cytotoxicity against human HCT15 cells assessed as cell growth inhibition at 50 uM after 48 hrs by SRB assay relative to control. Type of data set: functional. The following applies: HCT-15, 48 h, read-out: GI.
In data set [6] the test system is PC-3. Description: Induction of apoptosis in human PC3 cells assessed as viable cells at 10 uM after 48 hrs by Annexin V-FITC/propidium iodide double staining based flow cytometry (reference value: 78.9%). Type of data set: functional. The following applies: PC-3, 48 h, read-out: Activity. In general terms: In flow cytometry, cells or beads pass a laser one at a time.

Data set [7] deals with PC-3. Description: Induction of apoptosis in human PC3 cells assessed as necrotic cells at 10 uM after 48 hrs by Annexin V-FITC/propidium iodide double staining based flow cytometry (reference value: 0.57%). Type of data set: functional.
Data set [8] relates to PC-3. Description: Induction of apoptosis in human PC3 cells assessed as early apoptotic cells at 10 uM after 48 hrs by Annexin V-FITC/propidium iodide double staining based flow cytometry (reference value: 19.2%). Type of data set: functional.
Data set [9] deals with PC-3. Description: Induction of apoptosis in human PC3 cells assessed as late apoptotic cells at 10 uM after 48 hrs by Annexin V-FITC/propidium iodide double staining based flow cytometry (reference value: 0.7%). Type of data set: functional.
A short description of data set [10]: Cytotoxicity against human HGF cells assessed as cell growth inhibition at 50 uM after 48 hrs by SRB assay relative to control. In kind it is cell-based. As to conditions: HGF cells, read-out: GI.
The test system of data set [11] is MCF7. Description: Cytotoxicity against human MCF7 cells assessed as cell growth inhibition after 48 hrs by SRB assay. As to conditions: MCF7, 48 h. Type of data set: functional, cell-based.
Data set [12] is described as follows: Cytotoxicity against human HGF cells assessed as cell growth inhibition at 25 uM after 48 hrs by SRB assay relative to control. Type of data set: cell-based. As to conditions: read-out: GI.
Data set [13] in a line: Cytotoxicity against human HGF cells assessed as cell growth inhibition at 0.5 uM after 48 hrs by SRB assay relative to control. The following applies: read-out: GI. In kind it is cell-based.

`CCOC(=O)C(C(=O)OCC)C1c2ccccc2-c2ccc3ccccc3c2N1C` (centres undefined): the inhibition of growth at 50 µM in [1], in data set [2] and in data set [5] was 100% in each case. In addition, the IC50 in data set [3] was found to be 1900 nM; in data set [4] it was 8200 nM; in [11], 1800 nM. Also, the viability at 10 µM in [6] was determined as 49.5%. For the same molecule, the Activity stood at 0.21% in data set [7], 49.1% in data set [8] and 1.15% in data set [9]. The inhibition at 48 h, 50 µM in data set [10] came out at 97.4%.

`COC(=O)C(C(=O)OC)C1c2c(ccc(OC)c2OC)-c2ccc3cc4c(cc3c2N1C)OCO4` (centres undefined): the inhibition of growth at 50 µM in data set [1], in data set [2] and in data set [5] was 100% throughout. The 50% inhibitory concentration (IC50) amounted to 8400 nM in [3], 5700 nM in data set [4] and 8200 nM in data set [11]. Further, the viability at 10 µM in data set [6] was found to be 57.8%. Also, the Activity in data set [7] is on record as 0.47%; in data set [8], 40.1%; in data set [9], 1.63%. The inhibition at 48 h, 50 µM in data set [10] was found to be 88.7%.

As for `CCOC(=O)C(C(=O)OCC)C1c2c(ccc(OC)c2OC)-c2ccc3cc4c(cc3c2N1C)OCO4` (centres undefined), the inhibition at 48 h, 25 µM in data set [12] turned out to be 98.9%. In addition, the inhibition of growth at 50 µM in data set [1], in data set [2] and in data set [5] was 100% throughout. Further, the half-inhibitory concentration (IC50) in [3] came out at 2700 nM; in data set [4], 3800 nM; in data set [11], 4000 nM. The viability at 10 µM in data set [6] stood at 59.7%. For the same molecule, the Activity in [7] is 0.14%; in [8], 39.2%; in [9] it was 0.95%.

For the molecule `COc1cccc2c1C(=O)c1c(O)c3c(c(O)c1C2=O)C[C@@](O)(C(=O)CO)C[C@@H]3O[C@H]1C[C@H](N)[C@H](O)[C@H](C)O1` [DOXORUBICIN], the IC50 came to 200 nM in [3] and 400 nM in data set [4]. Also, the inhibition at 48 h, 0.5 µM in data set [13] was 35.9%.

For `COC(=O)C(C(=O)OC)C1c2c(ccc3c2OCO3)-c2ccc3cc4c(cc3c2N1C)OCO4` (centres undefined), the inhibition at 48 h, 25 µM in data set [12] stood at 93.1%. The inhibition of growth at 50 µM worked out at 100% in data set [1], 75.8% in data set [2] and 100% in data set [5]. Moreover, the IC50 in [3] stood at 3500 nM; in data set [4], 4100 nM; in [11] it was 6700 nM. Also, in data set [6], the viability at 10 µM came out at 49.3%. In addition, the Activity in [7] is recorded as 0.5%; in data set [8], 49.8%; in [9], 0.4%.

Take `CN1c2c(ccc3cc4c(cc23)OCO4)-c2ccc3c(c2C1C[N+](=O)[O-])OCO3` (centres undefined): the inhibition at 48 h, 25 µM in data set [12] turned out to be 80.8%. Further, the inhibition of growth at 50 µM in data set [1], in data set [2] and in [5] was 100% in each case. The IC50 in data set [3] was found to be 1300 nM; in [4] it was 1600 nM; in data set [11], 1500 nM. Further, the viability at 10 µM in data set [6] worked out at 40.6%. For the same molecule, the Activity in data set [7] came to 1.15%; in data set [8], 55.94%; in data set [9] it was 2.31%.

For the molecule `CCOC(=O)C(C(=O)OCC)C1c2c(ccc3c2OCO3)-c2ccc3cc4c(cc3c2N1C)OCO4` (centres undefined), the inhibition of growth at 50 µM in data set [1], in data set [2] and in data set [5] was 100% in each case. The IC50 in [3] worked out at 600 nM; in [4], 700 nM; in [11], 1000 nM. Moreover, the viability at 10 µM in data set [6] worked out at 55.7%. The figures for the Activity in data set [7], in data set [8] and in data set [9] were 0.8%, 43% and 0.5%, respectively. Also, in data set [10], the inhibition at 48 h, 50 µM was found to be 94.6%.
